Data taken from article PMC12891993, “Bio-orthogonal chemistry-based strategy to Turn-OFF CRISPR-Cas9 activity in solution and live cells” (NAR Molecular Medicine, 2026).
Residues, ends and D or L forms follow the SMILES beside them. *: point of attachment. X1 = O=C(COC1CC/C=C/CCC1)*

Assays:
Assay type in all cases: cell-based
HEK293 cells = assay: Assessment of cell permeability of TCO-modified CRISPR suppressors with OG-Tz fluorescent probe; details: suppressor 30 μM 3 h, then OG-Tz 50 μM 2 h; for cellular fluorescence in the Oregon Green channel: confocal microscopy; for cell permeability: microscopy, confirmed by flow cytometry
Protocol: The studies were carried out using the previously reported OG-Tz fluorescent probe. The chemical structure of OG-Tz is shown in Supplementary Fig. S7. OG-Tz was synthesized using the procedure reported by Devaraj and co-workers. The HEK293 cells were cultured in DMEM, containing 10% FBS and 1X Penicillin/Streptomycin, at 37°C, 5% CO2, and 95% humidity. The cells were seeded at a concentration of 1 × 10^5 cells per well in a six-well plate 24 h prior to the experiment. The cells were treated with the TCO-modified CRISPR suppressors (30 μM) for 3 h. Then, the media was replaced, and the cells were treated with OG-Tz (50 μM) for 2h. Afterwards, the cells were treated with trypsin for 5 min, collected by centrifugation at 1000 RPM, and suspended in PBS (1 mL). GFP expression was analyzed by flow cytometry. Data from 10^6 cells were acquired using a FACS Aria III cell sorter equipped with a 488 nm/blue coherent sapphire solid-state laser, 20 mW (BD Biosciences, San Jose, CA, USA). Data analyses were carried out using FlowJo software (Ashland, OR, USA), according to the manufacturer’s instructions. Parameters, such as MFI and the percentages of specific populations, were quantified by histogram analysis.
HEK293 cells were grown to ∼70% confluence in 35 mm MatTek glass bottom dishes in DMEM supplemented with 10% […], penicillin, and streptomycin. The cells were treated with AAA-PNA-TCO, TTT-PNA-TCO, TCO-CPP-RRWQW, or TCO-CPP-RLRWR (30 μM) for 3 h. Afterwards, the cells were treated with OG-Tz (50 μM) for 2 h. Hoechst 33 258 dye was used for nuclear staining. Cellular fluorescence was analyzed using confocal microscopy. Microscopy experiments were carried out using a Zeiss LSM980 confocal microscope.

[1] = system: GFP gene in GFP-expressing HEK293 cells; assay: CRISPR-Cas9 experiments in GFP-expressing HEK293 cells, flow cytometry; details: then suppressor 10 μM 24 h, 48 h growth, duplicate; for inactivation of sgRNA3-(U4Tz1) inside the cells (MFI of GFP): Cas9 mRNA + sgRNA3-(U4Tz1) 48 h; for inactivation of sgRNA3-(U4Tz2) inside the cells (MFI of GFP): Cas9 mRNA + sgRNA3-(U4Tz2) 48 h
Protocol: CRISPR-Cas9 experiments were carried out following the procedure reported by Yin et al. The GFP-expressing HEK293 cells were purchased from GenTarget (cat.# SC001) and cultured in DMEM, containing 10% FBS and 1X Penicillin/Streptomycin, at 37°C, 5% CO2, and 95% humidity. The cells were seeded at a concentration of 1 × 10^5 cells per well in a six-well plate 24 h prior to the experiment. The cells were transfected with Cas9 mRNA (500 ng, Thermo Fisher Scientific), GFP-targeting sgRNAs (30 nM) using lipofectamine (1.5 μL) (Invitrogen™ LMRNA003) for 72 h in Opti-MEM reduced serum media. After 72 h, Opti-MEM was replaced with fresh DMEM, and the cells were grown for an additional 48 h. The cells were treated with trypsin for 5 min, collected by centrifugation at 1000 RPM, and suspended in PBS (1 mL). GFP expression was analyzed by flow cytometry. Data from 10^6 cells were acquired using a FACS Aria III cell sorter equipped with a 488 nm/blue coherent sapphire solid-state laser, 20 mW (BD Biosciences, San Jose, CA, USA). Data analyses were carried out using FlowJo software (Ashland, OR, USA), according to the manufacturer’s instructions. Parameters, such as MFI and the percentages of specific populations, were quantified by histogram analysis.
Ability of TCO-modified CRISPR suppressors to control nuclease activity was examined as follows: GFP-expressing HEK239 cells were co-transfected with Cas9 mRNA (500 ng, Thermo Fisher Scientific), GFP-targeting sgRNAs (30 nM) using lipofectamine (1.5 μL) (Invitrogen™ LMRNA003) for 48 h. Then, AAA-PNA-TCO, TTT-PNA-TCO, TCO-CPP-RRWQW, and TCO-CPP-RLRWR (10 μM) were added to the media. After 24 h of treatment with the TCO-modified CRISPR suppressors, the media were replaced with fresh DMEM, and the cells were allowed to grow for an additional 48 h. The cells were treated with trypsin for 5 min, collected by centrifugation at 1000 RPM, and suspended in PBS (1 mL). GFP expression was analyzed by flow cytometry. Data from 10^6 cells were acquired using a FACS Aria III cell sorter equipped with a 488 nm/blue coherent sapphire solid-state laser, 20 mW (BD Biosciences, San Jose, CA, USA). Data analyses were carried out using FlowJo software (Ashland, OR, USA), according to the manufacturer’s instructions. Parameters, such as MFI and the percentages of specific populations, were quantified by histogram analysis.

VEGFA in HEK293T cells = assay: Western blot analysis of CRISPR-Cas9 experiments targeting VEGFA; details: Cas9 mRNA + sgRNA4-(U4Tz1) or sgRNA4-(U4Tz2), suppressor 10 μM added after 48 h of transfection
Protocol: Total protein lysate was harvested in RIPA buffer, and proteins separated by 10% SDS-PAGE were transferred to a PVDF membrane by using High MW protocol on Biorad Turbo wet transfer. Following transfer, membranes were blocked in 5% milk in PBST for 1 h at room temperature, washed three times in PBS with 0.1% (w/v) Tween 20 (PBS/T) for 10 min each and placed in primary antibody overnight at 4 °C. Primary antibody was rabbit VEGFA polyclonal antibody (1:2000 dilution, Cat.# 19003–1-AP, Proteintech) and α-tubulin monoclonal antibody (1:20 000 dilution, Cat.# 666031–1-Ig, Proteintech) in 5% BSA in PBS/T. Following overnight incubation, membranes were washed three times in PBS/T for 10 min each. Then membranes were incubated in a 1:10 000 dilution of goat anti-rabbit secondary (Jackson), goat-anti-mouse secondary in 5% milk, and PBS/T. Membranes were washed a final 3 times in PBS/T for 10 min each prior to being imaged on the BioRad ChemiDoc by using Thermo Scientific SuperSignal West Pico PLUS Chemiluminescent Substrate (BioRad, Cat.# 34 577).
To assess the new constructs, HEK239T cells were co-transfected with the unmodified sgRNA4, sgRNA4-(U4Tz1), or sgRNA4-(U4Tz2) and commercially available mRNA that encodes the Cas9 gene for 72 h. […] VEGFA expression was once again analyzed by Western blot.

## CC(C)C[C@H](NC(=O)[C@H](CCCNC(=N)N)NC(=O)COC1CC/C=C/CCC1)C(=O)N[C@@H](CCCNC(=N)N)C(=O)N[C@@H](Cc1c[nH]c2ccccc12)C(=O)N[C@@H](CCCNC(=N)N)C(=O)O (stereo partly shown) [TCO-CPP-RLRWR] (X1-RLRWR-OH)
HEK293 cells
  cellular fluorescence in the Oregon Green channel: strongest fluorescence
  cell permeability: good cell permeability
[1]
  inactivation of sgRNA3-(U4Tz1) inside the cells (MFI of GFP): Analogous results
  inactivation of sgRNA3-(U4Tz2) inside the cells (MFI of GFP): Analogous results
VEGFA in HEK293T cells
  VEGFA expression after addition of suppressor: higher VEGFA expression

## N=C(N)NCCC[C@H](NC(=O)COC1CC/C=C/CCC1)C(=O)N[C@@H](CCCNC(=N)N)C(=O)N[C@@H](Cc1c[nH]c2ccccc12)C(=O)N[C@@H](CCC(N)=O)C(=O)N[C@@H](Cc1c[nH]c2ccccc12)C(=O)O (stereo partly shown) [TCO-CPP-RRWQW] (X1-RRWQW-OH)
HEK293 cells
  cellular fluorescence in the Oregon Green channel: strongest fluorescence
  cell permeability: good cell permeability
[1]
  inactivation of sgRNA3-(U4Tz1) inside the cells (MFI of GFP): able to inactivate
  inactivation of sgRNA3-(U4Tz2) inside the cells (MFI of GFP): able to inactivate
VEGFA in HEK293T cells
  VEGFA expression after addition of suppressor: higher VEGFA expression
